Results: US9000154B2, “Rho kinase inhibitors” (Boehringer Ingelheim International GmbH, priority 2010, dated 2015)
pIC50: −log10 of the molar value. Where a name gives a salt, the structure may show the parent alone.

Experiments:
ROCKII (1-543) [1] = target: T1, ROCKII (1-543) (Homo sapiens, UniProt O75116); test: Luciferin-Luciferase Assay (PKLight ATP detection); type: biochemical; design: ROCKII (1-543) (62,408 Da) was diluted in assay buffer; details: 7.5 nM ROCKII (1-543), 750 nM ATP
Method: 1. Luciferin-Luciferase Assay
The activity of ROCKII (1-543) kinase was measured utilizing Cambrex PKLight ATP Detection Reagent, a homogeneous assay technology using luciferin-luciferase to quantify residual ATP. The assay was performed in 384-well low-volume, white, non-binding surface microtiter plates (Corning). The assay buffer was 25 mM HEPES, pH 7.5, 10 mM MgCl2, 50 mM KCl, 0.2% BSA, 0.01% CHAPS, 100 μM Na3VO4 and 0.5 mM DTT. Test compounds, dissolved in neat DMSO at 500 μg/mL, were serially diluted for dose response for a final starting concentration of 3 μg/mL in 1% DMSO of assay buffer. ROCKII (1-543) (62,408 Da) was diluted in assay buffer to a final concentration of 7.5 nM in a total volume of 15 μL. Positive controls were reaction mixtures containing no test compound; negative controls (blanks) were reaction mixtures containing no kinase. After 15 minutes of pre-incubation of the test compounds with the kinase, a mixture of ATP and peptide substrate (AKRRRLSSLRA) in assay buffer was added to each well for a final concentration of 750 nM ATP and 500 nM peptide, respectively. After 90 minutes of incubation of the kinase reaction at 28° C. temperature, 10 μL of PKLight ATP Detection Reagent (warmed to room temperature previously) was added to each well. The assay plate was incubated at room temperature for additional 15 minutes and then read on an Analyst in luminescence mode. Dose-response experiments for each of the test compounds were conducted in quadruplet. IC50 values of test compounds represent 50% response of the positive control from the dose-response curve.
Target sequence in this assay (O75116 1-543): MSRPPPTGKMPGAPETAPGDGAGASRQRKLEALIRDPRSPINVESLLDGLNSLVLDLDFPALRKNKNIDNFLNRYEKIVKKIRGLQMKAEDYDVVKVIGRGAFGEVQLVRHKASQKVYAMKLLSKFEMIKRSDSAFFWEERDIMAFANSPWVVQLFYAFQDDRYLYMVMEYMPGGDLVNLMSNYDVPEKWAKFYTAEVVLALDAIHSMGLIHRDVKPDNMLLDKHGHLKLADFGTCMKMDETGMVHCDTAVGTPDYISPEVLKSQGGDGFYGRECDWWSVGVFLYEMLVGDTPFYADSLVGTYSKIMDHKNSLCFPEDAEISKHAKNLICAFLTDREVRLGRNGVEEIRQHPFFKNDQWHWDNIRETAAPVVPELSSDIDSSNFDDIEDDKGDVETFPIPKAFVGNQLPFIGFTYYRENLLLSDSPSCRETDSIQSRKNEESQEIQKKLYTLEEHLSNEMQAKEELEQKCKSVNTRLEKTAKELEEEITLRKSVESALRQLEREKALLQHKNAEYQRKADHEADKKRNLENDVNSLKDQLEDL

ROCKII (1-543) [2] = target: T1, ROCKII (1-543); test: IMAP Assay (fluorescence polarization, FAM S6 peptide); type: biochemical; design: 3 nM ROCKII (1-543) diluted in kinase reaction buffer; details: IMAP FP, 1 nM ROCKII (1-543), 100 μM ATP; read-out: Assay 2 IC50
Method: This assay is performed using FAM S6 substrate peptide (Catalogue #R7184) and IMAP FP Screening Express Kit detection reagents from Molecular Devices (Sunnyvale, Calif.) in IMAP kinase reaction buffer (Tris-HCl, pH 7.2, 10 mM MgCl2, 0.05% NaN3, 0.1% phosphate-free BSA) containing 1 mM DTT. Test compounds dissolved in neat DMSO at 0.3 mg/mL are serially diluted 1 to 3 for concentration response in 100% DMSO. The DMSO serial dilutions are further diluted 33.33-fold in kinase reaction buffer, and 10 μL of this buffer dilution is transferred to Corning black 96-well half area NBS plates for a final top concentration of 3 μg/mL in 1% DMSO. 10 μL aliquot of 3 nM ROCKII (1-543) diluted in kinase reaction buffer is added to each assay well for a final concentration of 1 nM kinase. 10 μL of a mixture of 600 nM FAM S6 peptide and 300 μM ATP diluted in kinase reaction buffer is added to each well for a final concentration of 200 nM peptide and 100 μM ATP. The kinase reaction mixture is incubated for 60 minutes at room temperature. Positive controls are reaction mixtures containing no test compound and negative controls (blanks) are reaction mixtures containing no kinase. The kinase reaction is stopped by addition of 60 μL IMAP progressive binding reagent (Catalog #R7284) diluted 400-fold in 1× Binding buffer A. After 30 min of incubation at room temperature, the plates are read for fluorescence polarization on Analyst Plate Reader using Ex 485 nm, Em 530 nm, and FL 505 dichroic mirror. The mP signals are converted to percent of control (POC) values using the formula: POC=100*(Signal−BCTRL)÷(PCTRL−BCTRL)
Where Signal is the test well signal, BCTRL is the average of background (negative control) well signals on the plate and PCTRL is the average of positive control well signals on the plate. For the concentration-responsive compounds, POC as a function of test compound concentration is fitted to a 4-parameter logistic equation of the form: Y=A+(B−A)/[1+(x/C)D]
Where A, B, C, and D are fitted parameters (parameter B is fixed at zero POC), and x and y are the independent and dependent variables, respectively. The IC50 is determined as the inflection point parameter, C.
Target sequence in this assay (O75116 1-543, species assumed): as the sequence (O75116 1-543) above

pIC50 (ROCKII (1-543) [1])	pIC50 (ROCKII (1-543) [2])	SMILES
8.32	7.27	CN1CCc2nc(NC(=O)c3cccc(CN4CCN(c5ccc(C#N)cc5)C4=O)c3)sc2C1 [Compound 1, 3-[3-(4-Cyano-phenyl)-2-oxo-imidazolidin-1-ylmethyl]-N-(5-methyl-4,5,6,7-tetrahydro-thiazolo[5,4-c]pyridin-2-yl)-benzamide]
8.51	8.59	COCCN(C)C1CCc2nc(NC(=O)c3cccc(Cn4cc(-c5ccc(C#N)cc5)nn4)c3)sc2C1 (stereo not shown) [Compound 24, 3-[4-(4-Cyano-phenyl)-[1,2,3]triazol-1-ylmethyl]-N-{6-[(2-methoxy-ethyl)-methyl-amino]-4,5,6,7-tetrahydro-benzothiazol-2-yl}-benzamide]
8.64	8.19	COCCN(CCOC)[C@H]1CCc2nc(NC(=O)c3cccc(Cn4cc(-c5ccc(C#N)cc5)nn4)c3)sc2C1 [Compound 55, N-{(S)-6-[Bis-(2-methoxy-ethyl)-amino]-4,5,6,7-tetrahydro-benzothiazol-2-yl}-3-[4-(4-cyano-phenyl)-[1,2,3]triazol-1-ylmethyl]-benzamide]
8.70	9.17	CN(C)[C@H]1CCc2nc(NC(=O)c3cccc(CN4CCN(c5ccc(C#N)cc5)C4=O)c3)sc2C1 [Compound 3, 3-[3-(4-Cyano-phenyl)-2-oxo-imidazolidin-1-ylmethyl]-N—((S)-6-dimethylamino-4,5,6,7-tetrahydro-benzothiazol-2-yl)-benzamide]
8.14		N#Cc1ccc(-c2cnn(Cc3cccc(C(=O)Nc4nc5c(s4)CC(N4CCCC(F)(F)C4)CC5)c3)c2)cc1 (stereo not shown) [Compound 71, 3-[4-(4-Cyano-phenyl)-pyrazol-1-ylmethyl]-N-[6-(3,3-difluoro-piperidin-1-yl)-4,5,6,7-tetrahydro-benzothiazol-2-yl]-benzamide]
8.15	8.24	N#Cc1ccc(-c2cn(Cc3cccc(C(=O)Nc4nc5c(s4)CC(N4CCC(F)(F)CC4)CC5)c3)nn2)cc1 (stereo not shown) [Compound 41, 3-[4-(4-Cyano-phenyl)-1,2,3-triazol-1-ylmethyl]-N-[6-(4,4-difluoro-piperidin-1-yl)-4,5,6,7-tetrahydro-benzothiazol-2-yl]-benzamide]
8.72		COCCN[C@@H]1CCc2nc(NC(=O)c3cccc(Cn4cc(-c5ccc(C#N)cc5)nn4)c3)sc2C1 [Compound 65, 3-[4-(4-Cyano-phenyl)-[1,2,3]triazol-1-ylmethyl]-N—[(R)-6-(2-methoxy-ethylamino)-4,5,6,7-tetrahydro-benzothiazol-2-yl]-benzamide]
8.70	8.89	N#Cc1ccc(N2CCN(Cc3cccc(C(=O)Nc4nc5c(s4)C[C@@H](N4CCOCC4)CC5)c3)C2=O)cc1 [Compound 6, 3-[3-(4-Cyano-phenyl)-2-oxo-imidazolidin-1-ylmethyl]-N—((S)-6-morpholin-4-yl-4,5,6,7-tetrahydro-benzothiazol-2-yl)-benzamide]
8.14		CN(C1CC1)C1CCc2nc(NC(=O)c3cccc(Cn4cc(-c5ccc(C#N)cc5)nn4)c3)sc2C1 (stereo not shown) [Compound 68, 3-[4-(4-Cyano-phenyl)-[1,2,3]triazol-1-ylmethyl]-N-[6-(cyclopropyl-methyl-amino)-4,5,6,7-tetrahydro-benzothiazol-2-yl]-benzamide]
8.68	8.14	CN(CCC(F)(F)F)[C@H]1CCc2nc(NC(=O)c3cccc(Cn4cc(-c5ccc(C#N)cc5)cn4)c3)sc2C1 [Compound 30, 3-[4-(4-Cyano-phenyl)-pyrazol-1-ylmethyl]-N-{(S)-6-[methyl-(3,3,3-trifluoro-propyl)-amino]-4,5,6,7-tetrahydro-benzothiazol-2-yl}-benzamide]
8.55	7.96	CN1CCc2nc(NC(=O)c3cccc(Cn4cc(-c5ccc(C#N)cc5)nn4)c3)sc2C1 [Compound 2, 3-[4-(4-Cyano-phenyl)-[1,2,3]triazol-1-ylmethyl]-N-(5-methyl-4,5,6,7-tetrahydro-thiazolo[5,4-c]pyridin-2-yl)-benzamide]
8.66	9.18	N#Cc1ccc(-c2cnn(Cc3cccc(C(=O)Nc4nc5c(s4)CC(N4CCC(F)CC4)CC5)c3)c2)cc1 (stereo not shown) [Compound 18, 3-[4-(4-Cyano-phenyl)-pyrazol-1-ylmethyl]-N-[6-(4-fluoro-piperidin-1-yl)-4,5,6,7-tetrahydro-benzothiazol-2-yl]-benzamide trifluoroacetate]
8.49	7.92	N#Cc1ccc(-c2nnc(Cc3cccc(C(=O)Nc4nc5c(s4)C[C@@H](N4CCOCC4)CC5)c3)o2)cc1 [Compound 40, 3-[5-(4-Cyano-phenyl)-1,3,4-oxadiazol-2-ylmethyl]-N—((S)-6-morpholin-4-yl-4,5,6,7-tetrahydro-benzothiazol-2-yl)-benzamide]
8.60	8.40	N#Cc1ccc(-c2nnc(Cc3cccc(C(=O)Nc4nc5c(s4)C[C@@H](N4CCOCC4)CC5)c3)s2)cc1 [Compound 56, 3-[5-(4-Cyano-phenyl)-1,3,4-thiadiazol-2-ylmethyl]-N—((S)-6-morpholin-4-yl-4,5,6,7-tetrahydro-benzothiazol-2-yl)-benzamide]
8.72		CN(CCC#N)[C@H]1CCc2nc(NC(=O)c3cccc(Cn4cc(-c5ccc(C#N)cc5)cn4)c3)sc2C1 [Compound 53, N-{(S)-6-[(2-Cyano-ethyl)-methyl-amino]-4,5,6,7-tetrahydro-benzothiazol-2-yl}-3-[4-(4-cyano-phenyl)-pyrazol-1-ylmethyl]-benzamide]
8.03		N#Cc1ccc(-c2cn(Cc3cccc(C(=O)Nc4nc5c(s4)CC(NCC(F)F)CC5)c3)nn2)cc1 (stereo not shown) [Compound 52, 3-[4-(4-Cyano-phenyl)-[1,2,3]triazol-1-ylmethyl]-N-[6-(2,2-difluoro-ethylamino)-4,5,6,7-tetrahydro-benzothiazol-2-yl]-benzamide]
8.19		COCCN(C)[C@@H]1CCc2nc(NC(=O)c3cccc(Cn4cc(-c5ccc(C#N)cc5)nn4)c3)sc2C1 [Compound 66, 3-[4-(4-Cyano-phenyl)-[1,2,3]triazol-1-ylmethyl]-N-{(R)-6-[(2-methoxy-ethyl)-methyl-amino]-4,5,6,7-tetrahydro-benzothiazol-2-yl}-benzamide]
8.35		CN(C1CC1)C1CCc2nc(NC(=O)c3cccc(Cn4cc(-c5ccc(C#N)cc5)cn4)c3)sc2C1 (stereo not shown) [Compound 67, 3-[4-(4-Cyano-phenyl)-pyrazol-1-ylmethyl]-N-[6-(cyclopropyl-methyl-amino)-4,5,6,7-tetrahydro-benzothiazol-2-yl]-benzamide]
8.70		COCCN(C)[C@@H]1CCc2nc(NC(=O)c3cccc(Cn4cc(-c5ccc(C#N)cc5)cn4)c3)sc2C1 [Compound 64, 3-[4-(4-Cyano-phenyl)-pyrazol-1-ylmethyl]-N-{(R)-6-[(2-methoxy-ethyl)-methyl-amino]-4,5,6,7-tetrahydro-benzothiazol-2-yl}-benzamide]
8.14		CN(CC(F)F)C1CCc2nc(NC(=O)c3cccc(Cn4cc(-c5ccc(C#N)cc5)cn4)c3)sc2C1 (stereo not shown) [Compound 59, 3-[4-(4-Cyano-phenyl)-pyrazol-1-ylmethyl]-N-{6-[(2,2-difluoro-ethyl)-methyl-amino]-4,5,6,7-tetrahydro-benzothiazol-2-yl}-benzamide]
